Experiments:
FAAH−/− and FAAH+/+ mice [1] = assay: Rimonabant-precipitated withdrawal; type: in vivo; conditions: after subchronic 50 mg/kg twice daily 5.5 days; rimonabant 10 mg/kg i.p.
CB1 receptor [2] = target: T1, CB1 receptor (Mus musculus, UniProt P47746); type: biochemical, mice
CB1 receptor [3] = target: T1, CB1 receptor; assay: [3H]WIN55,212-2 autoradiography in brain sections after subchronic treatment; type: binding; conditions: FAAH−/− mice treated subchronically; 1 nM radioligand; mean ± SEM
CB1 receptor [4] = target: T1, CB1 receptor; assay: Agonist-stimulated [35S]GTPγS binding in spinal cord membranes; type: biochemical, mice
FAAH−/− and FAAH+/+ mice [5] = conditions: FAAH−/− mice ref Cravatt et al., 2001; cited from earlier work
[6] = THC blood and brain levels, single bolus vs cumulative dosing; type: in vivo; conditions: C57Bl/6J mice, mean ± SEM
FAAH−/− and FAAH+/+ mice [7] = assay: Tail withdrawal; type: in vivo
FAAH−/− and FAAH+/+ mice [8] = assay: Bar test for catalepsy, cumulative dose-response; type: in vivo
FAAH−/− and FAAH+/+ mice [9] = assay: Hypothermia; type: in vivo
[10] = FAAH−/− mice treated subchronically, WIN55,212-2 10 μM, mean ± SEM
[11] = FAAH+/+ mice, naive, cumulative dosing
[12] = FAAH−/− mice, naive, cumulative dosing
[13] = Table 3, FAAH−/− mice, subchronic AEA
[14] = Table 3, FAAH−/− mice, subchronic THC
[15] = Table 3, FAAH−/− mice, subchronic vehicle

T1 sequence (P47746 whole entry): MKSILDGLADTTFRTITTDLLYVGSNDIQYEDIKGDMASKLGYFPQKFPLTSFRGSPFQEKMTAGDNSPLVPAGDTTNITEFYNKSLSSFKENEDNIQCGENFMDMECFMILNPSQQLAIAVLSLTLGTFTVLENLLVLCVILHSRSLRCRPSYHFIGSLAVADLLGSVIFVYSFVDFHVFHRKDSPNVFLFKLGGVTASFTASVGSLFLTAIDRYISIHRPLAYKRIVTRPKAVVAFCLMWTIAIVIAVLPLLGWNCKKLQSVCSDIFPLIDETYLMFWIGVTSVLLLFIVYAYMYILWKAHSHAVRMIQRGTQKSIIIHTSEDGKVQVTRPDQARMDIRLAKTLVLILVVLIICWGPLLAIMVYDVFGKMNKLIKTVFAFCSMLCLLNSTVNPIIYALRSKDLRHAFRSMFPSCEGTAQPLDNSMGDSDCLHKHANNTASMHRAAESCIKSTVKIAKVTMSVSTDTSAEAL

Q: Which “Rimonabant precipitated head twitches / headshakes” value (FAAH−/− and FAAH+/+ mice [1]) does the source give for `CCCCC/C=C\C/C=C\C/C=C\C/C=C\CCCC(=O)NCCO` [AEA, N-arachidonoyl ethanolamine] here?
A: no changes

Q: And the “WIN55,212-2-stimulated [35S]GTPγS binding vs vehicle control (study 1, Figure 5)” value (CB1 receptor [2]; FAAH+/+ and FAAH−/− mice, caudate putamen, hippocampus, cerebellum)?
A: not different from vehicle control

Q: What about the “Net WIN55,212-2-stimulated [35S]GTPγS binding, Caudate-Putamen” value (CB1 receptor [2]; [10]) of the same compound?
A: 152 ± 28 nCi/g

Q: What about the “Net WIN55,212-2-stimulated [35S]GTPγS binding, Cerebellum” value (CB1 receptor [2]; [10]) of the same compound?
A: 178 ± 23 nCi/g

Q: What about the “Net WIN55,212-2-stimulated [35S]GTPγS binding, Globus Pallidus” value (CB1 receptor [2]; [10]) of the same compound?
A: 639 ± 60 nCi/g

Q: What about the “Net WIN55,212-2-stimulated [35S]GTPγS binding, Hippocampus” value (CB1 receptor [2]; [10]) of the same compound?
A: 132 ± 24 nCi/g

Q: What about the “Net WIN55,212-2-stimulated [35S]GTPγS binding, PAG” value (CB1 receptor [2]; [10]) of the same compound?
A: 79 ± 19 nCi/g

Q: What about the “Net WIN55,212-2-stimulated [35S]GTPγS binding, Substantia Nigra” value (CB1 receptor [2]; [10]) of the same compound?
A: 592 ± 49 nCi/g

Q: And the “Specific [3H]WIN55,212-2 binding, Caudate-Putamen” value (CB1 receptor [3])?
A: 0.95 ± 0.09 pCi/g

Q: And the “Specific [3H]WIN55,212-2 binding, Cerebellum” value (CB1 receptor [3])?
A: 1.69 ± 0.18 pCi/g

Q: And the “Specific [3H]WIN55,212-2 binding, Globus Pallidus” value (CB1 receptor [3])?
A: 2.31 ± 0.18 pCi/g

Q: And the “Specific [3H]WIN55,212-2 binding, Hippocampus” value (CB1 receptor [3])?
A: 0.88 ± 0.06 pCi/g

Q: And the “Specific [3H]WIN55,212-2 binding, PAG” value (CB1 receptor [3])?
A: 0.57 ± 0.06 pCi/g

Q: And the “Specific [3H]WIN55,212-2 binding, Substantia Nigra” value (CB1 receptor [3])?
A: 3.11 ± 0.29 pCi/g

Q: And the “Emax of agonist-stimulated [35S]GTPγS binding” value (“Emax of agonist-stimulated” for short) (CB1 receptor [4]; spinal cord membranes from AEA-treated FAAH−/− mice)?
A: 35 ± 3.3 % Stim

Q: What about the “Emax as percent of that obtained in vehicle-treated mice” value (CB1 receptor [4]; spinal cord membranes from AEA-treated mice) of the same compound?
A: 104%

Q: And the “Emax of agonist-stimulated” value (CB1 receptor [4]; spinal cord membranes from THC-treated FAAH−/− mice)?
A: 25 ± 2.3 % Stim

Q: And the “Emax as percent of that obtained in vehicle-treated mice” value (CB1 receptor [4]; spinal cord membranes from THC-treated mice)?
A: 75%

Q: What about the “Emax of agonist-stimulated” value (CB1 receptor [4]; spinal cord membranes from vehicle-treated FAAH−/− mice) of the same compound?
A: 34 ± 1.6 % Stim

Q: What about the “Persistence of antinociception, catalepsy, locomotor inhibition and hypothermia” value (FAAH−/− and FAAH+/+ mice [5]) of the same compound?
A: 6 to 8 h

Q: Which “Brain THC level, single bolus” value ([6]; THC 3 mg/kg) does the source give for `CCCCCc1cc(O)c2c(c1)OC(C)(C)[C@@H]1CCC(C)=C[C@@H]21` [THC, Δ^9-tetrahydrocannabinol] here?
A: 77 ± 5 ng/mL

Q: What about the “Brain THC level, single bolus” value ([6]; THC 10 mg/kg) of the same compound?
A: 212 ± 19 ng/mL

Q: And the “Brain THC level, cumulative dosing” value ([6]; THC 30 mg/kg cumulative)?
A: 641 ± 134 ng/mL

Q: What about the “Brain THC level, single bolus” value ([6]; THC 30 mg/kg) of the same compound?
A: 520 ± 79 ng/mL

Q: What about the “Brain THC level, cumulative dosing” value ([6]; THC 56 mg/kg cumulative) of the same compound?
A: 1294 ± 178 ng/mL

Q: And the “Brain THC level, single bolus” value ([6]; THC 56 mg/kg)?
A: 1072 ± 156 ng/mL

Q: What about the “Antinociception ED50 (95% CI)” value (FAAH−/− and FAAH+/+ mice [7]; [11]) of the same compound?
A: 19 (14-26) mg/kg

Q: What about the “Antinociception ED50 (95% CI)” value (FAAH−/− and FAAH+/+ mice [7]; [12]) of the same compound?
A: 22 (17-30) mg/kg

Q: What about the “Antinociception maximum effect ± SEM” value (FAAH−/− and FAAH+/+ mice [7]; FAAH−/− mice, subchronic THC 50 mg/kg twice daily 5.5 days, @ 300 mg/kg) of the same compound?
A: 25 + 4%MPE @ 300 mg/kg

Q: What about the “Antinociception ED50 (95% CI)” value (FAAH−/− and FAAH+/+ mice [7]; [13]) of the same compound?
A: 55 (44-69) mg/kg

Q: What about the “Antinociception ED50 (95% CI)” value (FAAH−/− and FAAH+/+ mice [7]; [14]) of the same compound?
A: 76 (58-99) mg/kg

Q: And the “Antinociception ED50 (95% CI)” value (FAAH−/− and FAAH+/+ mice [7]; [15])?
A: 20 (16-24) mg/kg

Q: What about the “Catalepsy ED50 (95% CI)” value (FAAH−/− and FAAH+/+ mice [8]; [11]) of the same compound?
A: 18 (13-25) mg/kg

Q: And the Catalepsy maximum effect (FAAH−/− and FAAH+/+ mice [8]; FAAH+/+ mice, subchronic THC, @ 300 mg/kg)?
A: 62% @ 300 mg/kg

Q: And the “Catalepsy ED50 (95% CI)” value (FAAH−/− and FAAH+/+ mice [8]; [12])?
A: 21 (15-28) mg/kg

Q: What about the Catalepsy maximum effect (FAAH−/− and FAAH+/+ mice [8]; FAAH−/− mice, subchronic AEA, @ 300 mg/kg) of the same compound?
A: 25% @ 300 mg/kg

Q: What about the Catalepsy maximum effect (FAAH−/− and FAAH+/+ mice [8]; FAAH−/− mice, subchronic THC, @ 300 mg/kg) of the same compound?
A: 67% @ 300 mg/kg

Q: And the “Catalepsy ED50 (95% CI)” value (FAAH−/− and FAAH+/+ mice [8]; [13])?
A: 62 (56-69) mg/kg

Q: And the Catalepsy maximum effect (FAAH−/− and FAAH+/+ mice [8]; Table 3, FAAH−/− mice, subchronic THC, @ 150 mg/kg)?
A: 50% @ 150 mg/kg

Q: And the “Catalepsy ED50 (95% CI)” value (FAAH−/− and FAAH+/+ mice [8]; [15])?
A: 16 (13-19) mg/kg

Q: What about the “Hypothermia ED50 (95% CI)” value (FAAH−/− and FAAH+/+ mice [9]; [11]) of the same compound?
A: 18 (15-22) mg/kg

Q: What about the “Hypothermia ED50 (95% CI)” value (FAAH−/− and FAAH+/+ mice [9]; FAAH+/+ mice, subchronic THC) of the same compound?
A: 109 (62- 190) mg/kg

Q: What about the “Hypothermia ED50 (95% CI)” value (FAAH−/− and FAAH+/+ mice [9]; [12]) of the same compound?
A: 22 (16-32) mg/kg

Q: And the “Hypothermia ED50 (95% CI)” value (FAAH−/− and FAAH+/+ mice [9]; FAAH−/− mice, subchronic AEA)?
A: 133 (106- 166) mg/kg

Q: And the “Hypothermia ED50 (95% CI)” value (FAAH−/− and FAAH+/+ mice [9]; FAAH−/− mice, subchronic THC)?
A: 224 (190- 266) mg/kg

Q: And the “Hypothermia ED50 (95% CI)” value (FAAH−/− and FAAH+/+ mice [9]; [13])?
A: 50 (40-55) mg/kg

Q: And the “Hypothermia ED50 (95% CI)” value (FAAH−/− and FAAH+/+ mice [9]; [14])?
A: 32 (27-38) mg/kg

Q: What about the “Hypothermia ED50 (95% CI)” value (FAAH−/− and FAAH+/+ mice [9]; [15]) of the same compound?
A: 17 (15-20) mg/kg

Q: What about the “Rimonabant precipitated head twitches / headshakes” value (FAAH−/− and FAAH+/+ mice [1]) of the same compound?
A: significant increases

Reference: paper PMC2895947 (Neuropsychopharmacology : official publication of the …, 2010)
